Test results published in article PMC4933242, “Low or No Inhibitory Potency of the Canonical Galectin Carbohydrate-binding Site by Pectins and Galactomannans*” (The Journal of Biological Chemistry, 2016).
Like-named read-outs stand apart in the source and are kept apart here.

T1: galectin-2 (Homo sapiens, UniProt P05162)
T1 sequence (P05162 1-132): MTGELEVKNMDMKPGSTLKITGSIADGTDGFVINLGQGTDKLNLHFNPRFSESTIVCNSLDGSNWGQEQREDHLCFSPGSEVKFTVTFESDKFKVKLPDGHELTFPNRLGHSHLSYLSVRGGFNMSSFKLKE

T2: Gal-4N (Homo sapiens, UniProt P56470)
T2 construct: Gal-4N
T2 sequence (P56470 19-150 limits assumed): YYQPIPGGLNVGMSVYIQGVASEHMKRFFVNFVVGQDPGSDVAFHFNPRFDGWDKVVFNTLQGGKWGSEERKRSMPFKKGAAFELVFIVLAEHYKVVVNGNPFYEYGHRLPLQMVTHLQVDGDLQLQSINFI

T3: Gal-4C (Homo sapiens, UniProt P56470)
T3 construct: Gal-4C
T3 sequence (P56470 194-323 limits assumed): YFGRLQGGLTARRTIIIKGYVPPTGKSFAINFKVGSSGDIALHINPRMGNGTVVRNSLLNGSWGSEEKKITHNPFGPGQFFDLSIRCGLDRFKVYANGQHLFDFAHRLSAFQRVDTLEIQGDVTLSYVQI

T4: galectin-8N (Homo sapiens, UniProt O00214)
T4 construct: the N-terminal CRD of galectin-8 (galectin-8N)
T4 sequence (O00214 19-152 limits assumed): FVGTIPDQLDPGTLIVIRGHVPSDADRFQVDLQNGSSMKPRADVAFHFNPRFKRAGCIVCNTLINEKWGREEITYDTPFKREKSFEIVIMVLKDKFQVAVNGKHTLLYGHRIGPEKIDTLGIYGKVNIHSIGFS


What was measured:
galectin-2 = biological target: T1, galectin-2; assay: Fluorescence anisotropy assay, galectin-2; format: binding; settings: about 1 μM galectin, 0.1 or 0.02 μM probe; NI = no inhibition at highest concentration tested; read-out: Calculated Kd, Gal-2
Method: (§1) FA was used to analyze interactions of probes and ligands with galectins in solution, as described before ([41][–][44]). A PheraStarFS plate reader, with software PHERAstar Mars version 2.10 R3 (BMG, Offenburg, Germany), was used, and FA of fluorescein-tagged saccharide probes was measured with excitation at 485 nm and emission at 520 nm.
(§2) The anisotropy (A) is given in units of mA, where the theoretical maximum is 400, and the value for free fluorescein typically 23. All conditions were measured in at least two duplicate wells.
(§3) In this study, the effect of inhibitors of the saccharide probe/galectin interaction was tested in two ways. […] With structurally defined inhibitors (pure synthetic galacto-oligosaccharides, small galactomannans, and reference ligands) the molecular mass, molar concentrations, and number of binding sites (in this case one binding site per ligand) were known and their dissociation constants (Kd) could therefore be directly calculated, using the data from the FA assay as described in Sörme et al. ([41]). […] From this, the ratio of the molar concentration of the free inhibitor binding sites to their Kd value can be calculated, even if the FA assay cannot distinguish between the case when this is due to a few high affinity binding sites in the polysaccharide fraction or many of low affinity.

galectin-3 [1] = biological target: T5, galectin-3 (Homo sapiens, UniProt P17931); assay: Fluorescence anisotropy assay, galectin-3; format: binding; settings: about 1 μM galectin, 0.1 or 0.02 μM probe; NI = no inhibition at highest concentration tested; read-out: Calculated Kd, Gal-3
T5 sequence (P17931 whole entry): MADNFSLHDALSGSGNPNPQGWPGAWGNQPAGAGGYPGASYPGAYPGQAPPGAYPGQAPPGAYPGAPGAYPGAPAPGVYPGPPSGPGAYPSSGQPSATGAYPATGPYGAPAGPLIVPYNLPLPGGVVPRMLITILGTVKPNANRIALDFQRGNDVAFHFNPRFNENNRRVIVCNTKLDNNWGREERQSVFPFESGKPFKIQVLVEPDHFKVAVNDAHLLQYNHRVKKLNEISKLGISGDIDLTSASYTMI
Method: as §1, §2
(§4) In this study, the effect of inhibitors of the saccharide probe/galectin interaction was tested in two ways. In the first, a fixed low concentration of fluorescein-tagged probe (0.1 μM) and galectin were mixed with a range of concentrations of inhibitor. An optimal probe was chosen for each galectin to permit use of as low as possible concentration of galectin, while still achieving a sufficient rise in anisotropy for a reliable measuring range ([42][–][44]). […] With structurally defined inhibitors (pure synthetic galacto-oligosaccharides, small galactomannans, and reference ligands) the molecular mass, molar concentrations, and number of binding sites (in this case one binding site per ligand) were known and their dissociation constants (Kd) could therefore be directly calculated, using the data from the FA assay as described in Sörme et al. ([41]). […] Even if the molar concentration of the inhibitor is not known, the anisotropy value at a given condition permits calculation of the molar concentration of free galectin, as described below, and from this what fraction of the galectin is bound by a given mass per volume concentration of inhibitor. From this, the ratio of the molar concentration of the free inhibitor binding sites to their Kd value can be calculated, even if the FA assay cannot distinguish between the case when this is due to a few high affinity binding sites in the polysaccharide fraction or many of low affinity.

Gal-4N = biological target: T2, Gal-4N; assay: Fluorescence anisotropy assay, galectin-4N; format: binding; settings: about 1 μM galectin, 0.1 or 0.02 μM probe; NI = no inhibition at highest concentration tested; read-out: Calculated Kd, Gal-4N
Method: as §1, §2, §3

Gal-4C = biological target: T3, Gal-4C; assay: Fluorescence anisotropy assay, galectin-4C; format: binding; settings: about 1 μM galectin, 0.1 or 0.02 μM probe; NI = no inhibition at highest concentration tested; read-out: Calculated Kd, Gal-4C
Method: as §1, §2, §4

galectin-8N = biological target: T4, galectin-8N; assay: Fluorescence anisotropy assay, galectin-8N; format: binding; settings: about 1 μM galectin, 0.1 or 0.02 μM probe; read-out: Calculated Kd, Gal-8N
Method: as §1, §2, §3

galectin-9N = biological target: T6, galectin-9N (Homo sapiens, UniProt O00182); assay: Fluorescence anisotropy assay, galectin-9N; format: binding; settings: about 1 μM galectin, 0.1 or 0.02 μM probe; NI = no inhibition at highest concentration tested; read-out: Calculated Kd, Gal-9N
T6 construct: the N-terminal CRD of galectin-9 (galectin-9N)
T6 sequence (O00182 17-148 limits assumed): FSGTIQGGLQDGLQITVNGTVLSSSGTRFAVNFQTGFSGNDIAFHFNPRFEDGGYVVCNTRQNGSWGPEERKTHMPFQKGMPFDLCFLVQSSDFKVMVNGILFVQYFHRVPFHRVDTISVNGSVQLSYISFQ
Method: as §1, §2, §4

galectin-1 = galectin-1 (Homo sapiens, UniProt P09382); assay: Fluorescence anisotropy assay, inhibition of probe binding to galectin-1; settings: for Kd: about 1 μM galectin, 0.1 or 0.02 μM probe, 4 mM β-mercaptoethanol, NI = no inhibition at highest concentration tested, read-out: Calculated Kd, Gal-1
Chain of galectin-1 (P09382 whole entry, species assumed): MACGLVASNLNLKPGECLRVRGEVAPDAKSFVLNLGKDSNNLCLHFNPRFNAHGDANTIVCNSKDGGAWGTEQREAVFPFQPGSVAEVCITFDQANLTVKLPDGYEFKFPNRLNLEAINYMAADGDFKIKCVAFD
Method: as §1, §2, §4

Gal-9C = biological target: T7, Gal-9C (Homo sapiens, UniProt O00182); assay: Fluorescence anisotropy assay, galectin-9C; format: binding; settings: about 1 μM galectin, 0.1 or 0.02 μM probe; read-out: Calculated Kd, Gal-9C
T7 construct: Gal-9C
T7 sequence (O00182 227-355 limits assumed): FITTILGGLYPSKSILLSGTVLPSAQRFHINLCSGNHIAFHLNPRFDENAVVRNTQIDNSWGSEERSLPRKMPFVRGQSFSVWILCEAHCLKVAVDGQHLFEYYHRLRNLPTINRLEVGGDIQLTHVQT
Method: as §1, §2, §4

Gal-3 R186S = Gal-3 R186S (Homo sapiens, UniProt P17931, R186S); assay: Fluorescence anisotropy assay, galectin-3 R186S mutant; format: binding; settings: about 1 μM galectin, 0.1 or 0.02 μM probe; read-out: Calculated Kd, Gal-3 R186S
Chain of Gal-3 R186S (P17931 whole entry R186S): as the sequence (P17931 whole entry) above, with R186S counted along it
Method: as §1, §2, §3

galectin-3 [2] = biological target: T5, galectin-3; settings: given as example of low affinity; no reference given; read-out: Kd for galectin-3 canonical carbohydrate-binding site; cited from earlier work
galectin-1 wild type = biological target: T8, galectin-1 wild type (UniProt P09382 1-135); assay: fluorescence polarisation; fluorescence anisotropy competition in solution; galectin-1 WT 0.5 uM, tdga saccharide probe 0.1 uM, increasing concentrations of ASF in the presence of the peptide Anginex, with or without beta-mercaptoethanol; settings: both partners purified
T8 construct: galectin-1, wild type; also called Gal-1; galectin-1 WT; source: called purified galectins in the discussion
T8 sequence (P09382 whole entry): as the sequence (P09382 whole entry, species assumed) above

Molecule	Kd (galectin-3 [1]) [µM]	Kd (galectin-9N) [µM]	Kd (galectin-1) [µM]	other results
OC[C@H]1O[C@H](OC[C@H]2OC(O)[C@@H](O)[C@@H](O)[C@@H]2O[C@@H]2O[C@H](CO)[C@@H](O[C@@H]3O[C@H](CO)[C@@H](O)[C@H](O)[C@@H]3O)[C@H](O)[C@@H]2O)[C@H](O)[C@@H](O)[C@H]1O (stereo partly drawn) [6^1-α-Galactosyl-mannotriose, 6^1-α-D-galactosyl-mannotriose]	3600	2400	–	Kd (galectin-2): > 10000 µM; Kd (Gal-4N): > 10000 µM; Kd (Gal-4C): > 10000 µM; Kd (galectin-8N): 7400 µM
OC1OC[C@H](O)[C@H](O)[C@H]1O (mixture of isomers) [L-Arabinose, L-arabinose, reference compound]	–	94000	–	–
OC[C@H]1O[C@H](OC[C@H]2O[C@@H](O[C@H]3[C@H](O)[C@H](O)[C@H](O[C@H]4[C@H](O)[C@H](O)[C@H](O[C@H]5[C@H](O)[C@H](O)C(O)O[C@@H]5CO)O[C@@H]4CO)O[C@@H]3CO[C@H]3O[C@H](CO)[C@H](O)[C@H](O)[C@H]3O)[C@@H](O)[C@@H](O)[C@@H]2O[C@@H]2O[C@H](CO)[C@@H](O)[C@H](O)[C@@H]2O)[C@H](O)[C@@H](O)[C@H]1O (stereo partly drawn) [6^3,6^4-α-Galactosyl-mannopentaose, 6^3,6^4-α-D-galactosyl-mannopentaose]	1500	980	4300	Kd (galectin-2): 8300 µM; Kd (Gal-4C): > 10000 µM; Kd (Gal-9C): 2000 µM; Kd (galectin-8N): 2500 µM
COC1OC(CO)C(O)C(O)C1O (stereo not drawn) [Methyl β-Gal, reference compound]	–	4000	–	Kd (Gal-9C): 8600 µM
OC[C@H]1O[C@@H](O[C@H]2[C@@H](O)[C@@H](CO)O[C@@H](OC[C@H]3OC(O)[C@H](O)[C@@H](O)[C@H]3O)[C@@H]2O)[C@H](O)[C@@H](O)[C@H]1O (stereo partly shown) [Galβ1–3Galβ1–6Gal]	110	68	1200	–
CO[C@@H]1O[C@H](CO)[C@@H](O[C@@H]2O[C@H](CO)[C@H](O)[C@H](O)[C@H]2O)[C@H](O)[C@H]1NC(C)=O [Methyl β-LacNAc, reference compound]	52	–	84	Kd (Gal-3 R186S): 1200 µM
OC[C@H]1O[C@@H](OC[C@H]2OC(O)[C@H](O)[C@@H](O[C@@H]3O[C@H](CO)[C@H](O)[C@H](O)[C@H]3O)[C@H]2O)[C@H](O)[C@@H](O)[C@H]1O (stereo partly shown) [Branched Galβ1–6(Galβ1–3)Gal, Galβ1–6(Galβ1–3)Gal]	130	100	1300	–
OC[C@H]1O[C@@H](OC[C@H]2O[C@@H](OC[C@H]3OC(O)[C@H](O)[C@@H](O)[C@H]3O)[C@H](O)[C@@H](O[C@@H]3O[C@H](CO)[C@H](O)[C@H](O)[C@H]3O)[C@H]2O)[C@H](O)[C@@H](O)[C@H]1O (stereo partly shown) [Branched Galβ1–6(Galβ1–3)Galβ1–6Gal, Galβ1–6(Galβ1–3)Galβ1–6Gal]	80	51	800	–
CO[C@@H]1O[C@H](CO)[C@@H](O[C@@H]2O[C@H](CO)[C@H](O)[C@H](O)[C@H]2O)[C@H](O)[C@H]1O [Methyl β-Lac, reference compound]	110	–	170	Kd (Gal-3 R186S): 290 µM; Kd (Gal-4N): 2600 µM; Kd (Gal-4C): 2900 µM; Kd (Gal-9C): 190 µM
OC[C@H]1O[C@@H](O[C@H]2[C@@H](O)[C@@H](CO)OC(O)[C@@H]2O)[C@H](O)[C@@H](O)[C@H]1O (stereo partly shown) [Galβ1–3Gal]	180	150	–	–
OC[C@H]1O[C@@H](OC[C@H]2O[C@@H](OC[C@H]3OC(O)[C@H](O)[C@@H](O)[C@H]3O)[C@H](O)[C@@H](O)[C@H]2O)[C@H](O)[C@@H](O)[C@H]1O (stereo partly shown) [Galβ1–6Galβ1–6Gal]	> 2000	> 2000	> 2000	–
O=C[C@H](O)[C@@H](O)[C@@H](O)[C@H](O)CO [Gal, galactose]	–	–	–	Kd (galectin-3 [2]): ~5000 µM
Anginex [reference compound]	–	–	–	influence on galectin-1 interaction with Davanat® (galectin-1; galectin-1 0.5 μM, tdga probe 0.1 μM, Fig. 7E): no influence; potentiation of the inhibition of galectin-1 by ASF (factor) (galectin-1; with or without β-mercaptoethanol, Fig. 7F): about 500
OC[C@H]1O[C@@H](OC[C@H]2OC(O)[C@H](O)[C@@H](O)[C@H]2O)[C@H](O)[C@@H](O)[C@H]1O (stereo partly shown) [Galβ1–6Gal]	–	> 2000	> 2000	–
OC[C@H]1O[C@@H](O[C@@H]2[C@H](O)[C@@H](O)C(O)O[C@@H]2CO)[C@H](O)[C@@H](O)[C@H]1O (stereo partly shown) [Galβ1–4Gal]	–	1200	–	–
asialofetuin (natural protein, UniProt P12763 19-359, looked up, asialofetuin (ASF), a glycoprotein; Desialylated fetuin; also called ASF) IPLDPVAGYKEPACDDPDTEQAALAAVDYINKHLPRGYKHTLNQIDSVKVWPRRPTGEVYDIEIDTLETTCHVLDPTPLANCSVRQQTQHAVEGDCDIHVLKQDGQFSVLFTKCDSSPDSAEDVRKLCPDCPLLAPLNDSRVVHAVEVALATFNAESNGSYLQLVEISRAQFVPLPVSVSVEFAVAATDCIAKEVVDPTKCNLLAEKQYGFCKGSVIQKALGGEDVRVTCTLFQTQPVIPQPQPDGAEAEAPSAVPDAAGPTPSAAGPPVASVVVGPSVVAVPLPLHRAHYDLRHTFSGVASVESSSGEAFHVGKTPIVGQPSIPGGPVRLCPGRIRYFKI	–	–	–	fold potentiation by Anginex of the inhibition of galectin-1/probe binding by ASF (galectin-1 wild type): ~500 fold
